According to the supplement of paper PMC10307832:

Legend:
Experiment in all cases: relative viability (nuclei count vs DMSO), 5 days (fraction); higher = more cells survive
[1] = tested on: HCC-78
How it was run: (§1)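 Values are medians from duplicate plates. Each reflects relative viability, defined as the nuclei count of treated wells over that of vehicle wells. Lung cancer cell lines in 1536-well plates were pin-tool dosed one day after seeding with one drug alone or with a fixed anchor-drug dose plus five library-drug doses (not always all listed) in √10 steps, then fixed, stained and imaged at 4× after 5 days.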

[2] = tested on: RERF-LC-KJ
How it was run: as §1

[3] = tested on: NCI-H23
How it was run: as §1

[4] = tested on: 201T
How it was run: as §1

[5] = tested on: NCI-H1666
How it was run: as §1

[6] = tested on: NCI-H1915
How it was run: as §1

[7] = tested on: NCI-H2347
How it was run: as §1

[8] = tested on: NCI-H661
How it was run: as §1

[9] = tested on: LC-2-ad
How it was run: as §1

[10] = tested on: NCI-H650
How it was run: as §1

[11] = tested on: EPLC-272H
How it was run: as §1

[12] = tested on: NCI-H322M
How it was run: as §1

[13] = tested on: NCI-H520
How it was run: as §1

[14] = tested on: HCC-827
How it was run: as §1

[15] = tested on: NCI-H2087
How it was run: as §1

[16] = tested on: LCLC-97TM1
How it was run: as §1

[17] = tested on: NCI-H647
How it was run: as §1

[18] = tested on: COR-L 105
How it was run: as §1

[19] = tested on: NCI-H2126
How it was run: as §1

[20] = tested on: PC-14
How it was run: as §1

[21] = tested on: NCI-H2405
How it was run: as §1

[22] = tested on: H3255
How it was run: as §1

NC(=O)Nc1cc(-c2cccc(F)c2)sc1C(=O)N[C@H]1CCCNC1 [AZD7762] + Cc1nc(NC(=O)N2CCC[C@H]2C(N)=O)sc1-c1ccnc(C(C)(C)C(F)(F)F)c1 [Alpelisib] (partner 2 µM)
relative viability ([1]; first compound 0.01 µM): 0.371 | relative viability ([1]; first compound 0.03162 µM): 0.419 | relative viability ([1]; first compound 0.1 µM): 0.361 | relative viability ([1]; first compound 0.3162 µM): 0.394 | relative viability ([1]; first compound 1 µM): 0.287 | relative viability ([2]; first compound 0.01 µM): 0.792 | relative viability ([2]; first compound 0.03162 µM): 0.773 | relative viability ([2]; first compound 0.1 µM): 0.787 | relative viability ([2]; first compound 0.3162 µM): 0.924 | relative viability ([2]; first compound 1 µM): 0.914 | relative viability ([3]; first compound 0.01 µM): 0.859 | relative viability ([3]; first compound 0.03162 µM): 0.721 | relative viability ([3]; first compound 0.1 µM): 0.745 | relative viability ([3]; first compound 0.3162 µM): 0.562 | relative viability ([3]; first compound 1 µM): 0.418 | relative viability ([4]; first compound 0.01 µM): 1.01 | relative viability ([4]; first compound 0.03162 µM): 1.05 | relative viability ([4]; first compound 0.1 µM): 1.02 | relative viability ([4]; first compound 0.3162 µM): 1.08 | relative viability ([4]; first compound 1 µM): 1.11 | relative viability ([5]; first compound 0.01 µM): 1.12 | relative viability ([5]; first compound 0.03162 µM): 1.24 | relative viability ([5]; first compound 0.1 µM): 1.18 | relative viability ([5]; first compound 0.3162 µM): 1.02 | relative viability ([5]; first compound 1 µM): 0.75 | relative viability ([6]; first compound 0.01 µM): 1.06 | relative viability ([6]; first compound 0.03162 µM): 1.12 | relative viability ([6]; first compound 0.1 µM): 1.09 | relative viability ([6]; first compound 0.3162 µM): 1.09 | relative viability ([6]; first compound 1 µM): 0.997 | relative viability ([7]; first compound 0.01 µM): 1.07 | relative viability ([7]; first compound 0.03162 µM): 0.993 | relative viability ([7]; first compound 0.1 µM): 1.11 | relative viability ([7]; first compound 0.3162 µM): 1.26 | relative viability ([7]; first compound 1 µM): 1.01 | relative viability ([8]; first compound 0.01 µM): 0.712 | relative viability ([8]; first compound 0.03162 µM): 0.611 | relative viability ([8]; first compound 0.1 µM): 0.761 | relative viability ([8]; first compound 0.3162 µM): 0.491 | relative viability ([8]; first compound 1 µM): 0.35 | relative viability ([9]; first compound 0.01 µM): 0.979 | relative viability ([9]; first compound 0.03162 µM): 0.897 | relative viability ([9]; first compound 0.1 µM): 0.795 | relative viability ([9]; first compound 0.3162 µM): 0.612 | relative viability ([9]; first compound 1 µM): 0.433 | relative viability ([10]; first compound 0.01 µM): 1.19 | relative viability ([10]; first compound 0.03162 µM): 1.12 | relative viability ([10]; first compound 0.1 µM): 1.19 | relative viability ([10]; first compound 0.3162 µM): 1.27 | relative viability ([10]; first compound 1 µM): 1.02 | relative viability ([11]; first compound 0.01 µM): 1.07 | relative viability ([11]; first compound 0.03162 µM): 1.1 | relative viability ([11]; first compound 0.1 µM): 1.13 | relative viability ([11]; first compound 0.3162 µM): 0.992 | relative viability ([11]; first compound 1 µM): 0.674 | relative viability ([12]; first compound 0.01 µM): 0.776 | relative viability ([12]; first compound 0.03162 µM): 0.906 | relative viability ([12]; first compound 0.1 µM): 0.819 | relative viability ([12]; first compound 0.3162 µM): 0.94 | relative viability ([12]; first compound 1 µM): 0.906 | relative viability ([13]; first compound 0.01 µM): 1.05 | relative viability ([13]; first compound 0.03162 µM): 1.04 | relative viability ([13]; first compound 0.1 µM): 0.832 | relative viability ([13]; first compound 0.3162 µM): 0.635 | relative viability ([13]; first compound 1 µM): 0.371 | relative viability ([14]; first compound 0.01 µM): 1.01 | relative viability ([14]; first compound 0.03162 µM): 1.02 | relative viability ([14]; first compound 0.1 µM): 1 | relative viability ([14]; first compound 0.3162 µM): 0.985 | relative viability ([14]; first compound 1 µM): 0.659 | relative viability ([15]; first compound 0.01 µM): 1.18 | relative viability ([15]; first compound 0.03162 µM): 1.08 | relative viability ([15]; first compound 0.1 µM): 1.45 | relative viability ([15]; first compound 0.3162 µM): 1.34 | relative viability ([15]; first compound 1 µM): 1.27 | relative viability ([16]; first compound 0.01 µM): 0.292 | relative viability ([16]; first compound 0.03162 µM): 0.272 | relative viability ([16]; first compound 0.1 µM): 0.314 | relative viability ([16]; first compound 0.3162 µM): 0.278 | relative viability ([16]; first compound 1 µM): 0.298 | relative viability ([17]; first compound 0.01 µM): 1.28 | relative viability ([17]; first compound 0.03162 µM): 1.02 | relative viability ([17]; first compound 0.1 µM): 1.04 | relative viability ([17]; first compound 0.3162 µM): 0.61 | relative viability ([17]; first compound 1 µM): 0.104 | relative viability ([18]; first compound 0.01 µM): 1.2 | relative viability ([18]; first compound 0.03162 µM): 1.03 | relative viability ([18]; first compound 0.1 µM): 0.92 | relative viability ([18]; first compound 0.3162 µM): 0.847 | relative viability ([18]; first compound 1 µM): 0.461 | relative viability ([19]; first compound 0.01 µM): 0.794 | relative viability ([19]; first compound 0.03162 µM): 0.775 | relative viability ([19]; first compound 0.1 µM): 0.887 | relative viability ([19]; first compound 0.3162 µM): 0.824 | relative viability ([19]; first compound 1 µM): 0.85 | relative viability ([20]; first compound 0.01 µM): 0.894 | relative viability ([20]; first compound 0.03162 µM): 0.953 | relative viability ([20]; first compound 0.1 µM): 0.922 | relative viability ([20]; first compound 0.3162 µM): 0.919 | relative viability ([20]; first compound 1 µM): 0.392 | relative viability ([21]; first compound 0.01 µM): 0.808 | relative viability ([21]; first compound 0.03162 µM): 0.79 | relative viability ([21]; first compound 0.1 µM): 0.671 | relative viability ([21]; first compound 0.3162 µM): 0.445 | relative viability ([21]; first compound 1 µM): 0.27 | relative viability ([22]; first compound 0.01 µM): 0.727 | relative viability ([22]; first compound 0.03162 µM): 0.63 | relative viability ([22]; first compound 0.1 µM): 0.634 | relative viability ([22]; first compound 0.3162 µM): 0.705 | relative viability ([22]; first compound 1 µM): 0.357
